Reference: US20260344668A1, “PHENYLPYRAZOLE COMPOUND, AND PLANT DISEASE CONTROL METHOD” (priority 2022, published 2026)

Test system: Phakopsora pachyrhizi
Assay: Test Example 17 Control Test Against Soybean Rust Fungus (spore germination, petri dish)
Assay type: cell-based
Details: method according to Test Example 16
Protocol: The term of “non-treated well” in Test Example 4, Test Example 5, and Test Example 6 represents a well wherein a test was carried out under the same conditions as those described in each Test Example except for dispensing DMSO instead of a diluted solution with DMSO comprising the Present compound. Also, the term of “non-treated” in Test Examples 15 to 17 represents a test which was carried out under the same conditions as those described in each Test Example except for dispensing DMSO instead of a diluted solution with DMSO comprising the Present compound. Also, the term of “non-treated leaf disk” in Test Example 7 represents a leaf disk wherein a test was carried out under the same conditions as those described in the Test Example except for dispensing DMSO instead of a diluted solution with DMSO comprising the Present compound. Also, the term of “non-treated” in Test Example 10 and Test Example 11 means that a diluted solution with water of a formulation comprising the Present compound was not sprayed.
An agar medium (agar concentration: 1.0%) (3 mL) was placed in a plastic petri dish having a diameter of 3.5 cm, and solidified. […] This plastic petri dish was cultured at 23° C. for 1 day, and then germinated spores of Phakopsora pachyrhizi were counted. […]

Compound: Cc1ccc(S(=O)(=O)n2ccc(-c3ccc4c(c3)OC(F)(F)O4)n2)cc1 [compound 61]
- number of germinated spores relative to the non-treated plastic petri dish: ≤ 50%
